Activity calls are given as the source filed them.
Experiments:
[1] = HIV-1 Vif–A3G interaction blockers – biochemical, TR-FRET, GST-Vif 1-94, biotin-A3G peptide, dose response retest, primary screen (AID 1117319); assay type: functional;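 further: TR-FRET signal of purified GST-Vif binding a biotinylated A3G peptide; inhibitors lower the FRET signal by blocking Vif and A3G binding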
H9c2 = assay: cells; assay type: functional, cell-based; settings: Rattus norvegicus, H9c2, Myocardium;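 further: confirmatory concentration-response retest of ultra-high-throughput screening hits for modulation of myocardial damage; cell death induced by hydrogen peroxide oxidative stress; compound pretreatment for 60 min then peroxide exposure for 2 h; potency is for protecting the cells against peroxide damage rather than for killing them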
[2] = target: Peroxisome proliferator-activated receptor gamma/Nuclear receptor coactivator 2 (Homo sapiens, UniProt P37231); assay type: functional;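 further: agonist potency for raising coactivator recruitment to the receptor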
[3] = target: Peroxisome proliferator-activated receptor gamma/Nuclear receptor coactivator 1 (Homo sapiens, UniProt P37231); assay type: functional;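 further: agonist potency as compounds enhance coactivator SRC-1 recruitment to PPARgamma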
[4] = target: Peroxisome proliferator-activated receptor gamma/Nuclear receptor coactivator 3 (Homo sapiens, UniProt P37231); assay type: functional;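 further: agonist potency for raising coactivator recruitment to the receptor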
[5] = viability loss of HPDE-C7K cells – cell-based, fluorescence, HTS, primary screen (AID 431); assay type: functional; settings: Homo sapiens
[6] = tested on: Streptococcus sp. 'group A'; assay: Streptococcus pyogenes SK(-)GAS viability under kanamycin – luminescence, BacTiterGlo, confirmation, counter-screen for streptokinase expression inhibitor project, dose response (AID 1900); assay type: functional, organism-based
[7] = HPDE-C7 pancreatic duct cell viability loss – fluorescence, HTS (AID 430); assay type: functional, cell-based; settings: Homo sapiens
[8] = Luminescence Cell-Based Dose Retest to Confirm Inhibitors of Cancer Stem Cells. [Related pubchem assays (depositor defined):AID2717, AID2721]; assay type: functional, Homo sapiens; settings: Homo sapiens
Streptococcus = assay: GAS UMAA2166 growth inhibition – luminescence, BacTiterGlo, counter-screen for streptokinase expression inhibitor project, dose response (AID 1915); assay type: functional, organism-based;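 further: potency for reduction of bacterial viability or growth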
Streptokinase A = target: T1, Streptokinase A (Streptococcus pyogenes serotype M1, UniProt P10520); assay: viability-normalized secreted streptokinase activity reduction – plasminogen activation absorbance, OD405, dose response (AID 1914); assay type: functional, Streptococcus pyogenes M1 GAS;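 further: secreted streptokinase activity via plasminogen activation per viability signal from cell pellet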
T1 sequence (P10520 whole entry): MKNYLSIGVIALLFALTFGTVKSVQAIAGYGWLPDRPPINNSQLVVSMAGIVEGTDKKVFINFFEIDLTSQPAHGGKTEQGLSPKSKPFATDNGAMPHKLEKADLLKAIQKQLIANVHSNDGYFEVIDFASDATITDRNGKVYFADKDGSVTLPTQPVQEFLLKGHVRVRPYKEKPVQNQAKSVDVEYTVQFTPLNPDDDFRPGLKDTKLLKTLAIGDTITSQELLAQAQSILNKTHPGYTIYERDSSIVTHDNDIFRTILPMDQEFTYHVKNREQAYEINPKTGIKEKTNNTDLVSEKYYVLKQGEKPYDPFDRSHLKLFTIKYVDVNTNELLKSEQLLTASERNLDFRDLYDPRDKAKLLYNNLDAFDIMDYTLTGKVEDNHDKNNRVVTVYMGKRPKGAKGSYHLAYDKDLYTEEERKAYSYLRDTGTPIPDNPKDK

[9] = NIH3T3 cell viability loss – ATP luminescence, mouse fibroblasts, counter-screen, dose response (AID 2010); assay type: functional, cell-based;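 further: cells exposed to compound for about 90 hours before reading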
[10] = Trypanosoma cruzi growth suppression in host cells – NIH3T3 host cells, beta-gal luminescence, confirmation (AID 2044); assay type: functional, cell-based;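 further: intracellular parasites grown in NIH/3T3 mouse fibroblasts as host cells; luminescent beta-galactosidase reporter signal from transgenic T. cruzi replicating inside host cells; inhibitors lower the luminescence signal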
Aminopeptidase N = target: T2, Aminopeptidase N (Plasmodium falciparum FcB1/Columbia, UniProt O96935); assay: malaria alanyl aminopeptidase activity blockers – biochemical, fluorogenic H-Leu-NHMec substrate, 1536-well (AID 1445); set-up: species or system Plasmodium falciparum 3D7, 3D7
T2 sequence (O96935 whole entry): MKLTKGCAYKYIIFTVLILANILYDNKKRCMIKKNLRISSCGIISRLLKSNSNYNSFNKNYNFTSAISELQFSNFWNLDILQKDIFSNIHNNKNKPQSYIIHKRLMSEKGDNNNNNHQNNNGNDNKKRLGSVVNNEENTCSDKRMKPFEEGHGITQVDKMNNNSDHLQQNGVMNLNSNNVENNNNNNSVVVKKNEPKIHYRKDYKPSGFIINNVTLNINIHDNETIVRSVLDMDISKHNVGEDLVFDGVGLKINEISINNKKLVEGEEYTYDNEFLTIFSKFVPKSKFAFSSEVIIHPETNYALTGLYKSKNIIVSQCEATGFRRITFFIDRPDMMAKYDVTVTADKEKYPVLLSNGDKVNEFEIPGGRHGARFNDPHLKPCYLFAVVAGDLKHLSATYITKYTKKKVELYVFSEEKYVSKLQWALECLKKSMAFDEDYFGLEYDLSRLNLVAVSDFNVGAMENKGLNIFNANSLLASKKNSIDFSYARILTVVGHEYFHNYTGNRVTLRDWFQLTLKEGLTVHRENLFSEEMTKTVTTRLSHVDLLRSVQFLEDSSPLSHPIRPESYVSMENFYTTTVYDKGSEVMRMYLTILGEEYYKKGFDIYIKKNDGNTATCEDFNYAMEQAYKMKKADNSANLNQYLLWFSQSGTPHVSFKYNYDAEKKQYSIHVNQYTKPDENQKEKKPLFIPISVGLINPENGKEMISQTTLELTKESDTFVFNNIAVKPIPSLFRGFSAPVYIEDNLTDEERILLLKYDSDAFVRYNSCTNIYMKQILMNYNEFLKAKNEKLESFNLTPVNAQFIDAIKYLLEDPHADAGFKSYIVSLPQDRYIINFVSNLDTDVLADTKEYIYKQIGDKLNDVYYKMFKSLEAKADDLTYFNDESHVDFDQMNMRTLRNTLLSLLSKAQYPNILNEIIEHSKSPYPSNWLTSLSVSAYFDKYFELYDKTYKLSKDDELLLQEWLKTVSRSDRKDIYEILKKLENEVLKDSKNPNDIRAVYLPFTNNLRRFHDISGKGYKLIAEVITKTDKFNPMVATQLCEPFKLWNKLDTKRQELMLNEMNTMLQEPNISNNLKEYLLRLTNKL

[11] = HIV-1 AD8 envelope cell-cell fusion blockers – cherry-pick, dose response (AID 652062); assay type: functional, cell-based;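 further: luciferase signal from cell-cell fusion driven by HIV-1 clade B AD8 Env; potency is for inhibitors of fusion seen as a drop in luminescence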
[12] = target: T3, Calpain-2 catalytic subunit (Sus scrofa, UniProt P43367); assay: m-calpain protease blockers, concentration series – biochemical, fluorogenic peptide substrate, dose response (AID 1420); assay type: functional
T3 sequence (P43367 whole entry): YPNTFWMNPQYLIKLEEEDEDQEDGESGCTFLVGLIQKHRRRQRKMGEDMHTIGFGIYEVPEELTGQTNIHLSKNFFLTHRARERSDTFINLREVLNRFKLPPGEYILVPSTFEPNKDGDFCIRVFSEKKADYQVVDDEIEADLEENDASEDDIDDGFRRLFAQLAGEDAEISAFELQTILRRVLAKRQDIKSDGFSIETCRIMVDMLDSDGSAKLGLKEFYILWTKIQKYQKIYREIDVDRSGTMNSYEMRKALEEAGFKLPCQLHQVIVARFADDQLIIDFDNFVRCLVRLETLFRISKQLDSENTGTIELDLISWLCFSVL

Protein skinhead-1 = target: T4, Protein skinhead-1 (Caenorhabditis elegans, UniProt P34707); assay type: functional
T4 sequence (P34707 whole entry): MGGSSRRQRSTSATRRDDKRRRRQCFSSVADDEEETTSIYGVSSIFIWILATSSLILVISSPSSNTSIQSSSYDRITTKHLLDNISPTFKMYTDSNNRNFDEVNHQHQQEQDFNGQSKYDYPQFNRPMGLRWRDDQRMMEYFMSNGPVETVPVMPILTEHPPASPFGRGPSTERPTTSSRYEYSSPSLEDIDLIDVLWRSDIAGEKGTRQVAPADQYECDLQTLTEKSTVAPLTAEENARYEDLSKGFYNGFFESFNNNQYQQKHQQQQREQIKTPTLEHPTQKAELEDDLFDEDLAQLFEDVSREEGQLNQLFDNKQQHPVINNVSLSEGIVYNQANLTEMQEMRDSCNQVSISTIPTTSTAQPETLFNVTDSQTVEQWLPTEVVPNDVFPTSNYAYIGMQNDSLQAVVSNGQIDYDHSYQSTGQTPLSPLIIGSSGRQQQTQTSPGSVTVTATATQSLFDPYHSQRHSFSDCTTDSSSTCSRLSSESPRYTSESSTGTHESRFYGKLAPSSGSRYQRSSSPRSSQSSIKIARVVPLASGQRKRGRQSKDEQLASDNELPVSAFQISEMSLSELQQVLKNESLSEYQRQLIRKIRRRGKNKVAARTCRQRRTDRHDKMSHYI

[13] = target: T5, DNA repair protein RAD52 homolog (Homo sapiens, UniProt P43351); assay type: functional, biochemical
T5 sequence (P43351 whole entry): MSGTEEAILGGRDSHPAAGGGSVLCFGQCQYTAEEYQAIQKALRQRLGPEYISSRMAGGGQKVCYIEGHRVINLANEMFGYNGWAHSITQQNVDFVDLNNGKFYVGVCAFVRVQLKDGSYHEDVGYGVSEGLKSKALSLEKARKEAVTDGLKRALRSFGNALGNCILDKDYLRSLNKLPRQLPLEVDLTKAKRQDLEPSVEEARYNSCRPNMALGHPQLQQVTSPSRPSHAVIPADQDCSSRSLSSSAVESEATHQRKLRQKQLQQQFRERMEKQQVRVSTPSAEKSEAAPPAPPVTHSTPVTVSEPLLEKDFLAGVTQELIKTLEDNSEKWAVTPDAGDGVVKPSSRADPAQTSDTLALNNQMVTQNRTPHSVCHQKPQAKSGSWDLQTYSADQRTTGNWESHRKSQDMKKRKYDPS

Fatty acid synthase [14] = target: T6, Fatty acid synthase (Homo sapiens, UniProt P49327); assay: inhibition of human FAS-TE enzyme activity – biochemical, endpoint fluorescence intensity, uHTS hits, dose response (AID 624327); assay type: functional;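 further: fluorescence from hydrolysis of an O-methyl fluorescein acyl ester substrate by the enzyme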
Fatty acid synthase [15] = target: T6, Fatty acid synthase; assay: inhibition of human FAS-TE enzyme activity – biochemical, kinetic fluorescence intensity, dose response (AID 624326); assay type: functional;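 further: rate of fluorescence rise from hydrolysis of a fluorogenic O-methyl fluorescein ester substrate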

Peroxisome proliferator-activated receptor gamma/Nuclear receptor coactivator 1, sequence (P37231 whole entry): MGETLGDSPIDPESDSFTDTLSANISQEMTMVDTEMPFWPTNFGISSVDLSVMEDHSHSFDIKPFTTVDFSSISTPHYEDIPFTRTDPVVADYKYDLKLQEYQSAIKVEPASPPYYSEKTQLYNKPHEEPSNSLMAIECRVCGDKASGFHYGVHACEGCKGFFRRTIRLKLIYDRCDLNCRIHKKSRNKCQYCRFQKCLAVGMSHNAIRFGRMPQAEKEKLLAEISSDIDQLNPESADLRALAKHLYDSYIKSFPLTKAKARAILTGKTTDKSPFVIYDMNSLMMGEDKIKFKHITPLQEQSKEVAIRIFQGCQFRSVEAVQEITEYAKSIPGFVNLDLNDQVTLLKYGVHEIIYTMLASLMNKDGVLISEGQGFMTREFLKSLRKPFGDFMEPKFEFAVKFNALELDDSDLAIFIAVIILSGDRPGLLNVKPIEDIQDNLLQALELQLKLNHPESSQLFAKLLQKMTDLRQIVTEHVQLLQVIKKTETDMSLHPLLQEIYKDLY
Peroxisome proliferator-activated receptor gamma/Nuclear receptor coactivator 1, sequence (Q15788 whole entry, further chain): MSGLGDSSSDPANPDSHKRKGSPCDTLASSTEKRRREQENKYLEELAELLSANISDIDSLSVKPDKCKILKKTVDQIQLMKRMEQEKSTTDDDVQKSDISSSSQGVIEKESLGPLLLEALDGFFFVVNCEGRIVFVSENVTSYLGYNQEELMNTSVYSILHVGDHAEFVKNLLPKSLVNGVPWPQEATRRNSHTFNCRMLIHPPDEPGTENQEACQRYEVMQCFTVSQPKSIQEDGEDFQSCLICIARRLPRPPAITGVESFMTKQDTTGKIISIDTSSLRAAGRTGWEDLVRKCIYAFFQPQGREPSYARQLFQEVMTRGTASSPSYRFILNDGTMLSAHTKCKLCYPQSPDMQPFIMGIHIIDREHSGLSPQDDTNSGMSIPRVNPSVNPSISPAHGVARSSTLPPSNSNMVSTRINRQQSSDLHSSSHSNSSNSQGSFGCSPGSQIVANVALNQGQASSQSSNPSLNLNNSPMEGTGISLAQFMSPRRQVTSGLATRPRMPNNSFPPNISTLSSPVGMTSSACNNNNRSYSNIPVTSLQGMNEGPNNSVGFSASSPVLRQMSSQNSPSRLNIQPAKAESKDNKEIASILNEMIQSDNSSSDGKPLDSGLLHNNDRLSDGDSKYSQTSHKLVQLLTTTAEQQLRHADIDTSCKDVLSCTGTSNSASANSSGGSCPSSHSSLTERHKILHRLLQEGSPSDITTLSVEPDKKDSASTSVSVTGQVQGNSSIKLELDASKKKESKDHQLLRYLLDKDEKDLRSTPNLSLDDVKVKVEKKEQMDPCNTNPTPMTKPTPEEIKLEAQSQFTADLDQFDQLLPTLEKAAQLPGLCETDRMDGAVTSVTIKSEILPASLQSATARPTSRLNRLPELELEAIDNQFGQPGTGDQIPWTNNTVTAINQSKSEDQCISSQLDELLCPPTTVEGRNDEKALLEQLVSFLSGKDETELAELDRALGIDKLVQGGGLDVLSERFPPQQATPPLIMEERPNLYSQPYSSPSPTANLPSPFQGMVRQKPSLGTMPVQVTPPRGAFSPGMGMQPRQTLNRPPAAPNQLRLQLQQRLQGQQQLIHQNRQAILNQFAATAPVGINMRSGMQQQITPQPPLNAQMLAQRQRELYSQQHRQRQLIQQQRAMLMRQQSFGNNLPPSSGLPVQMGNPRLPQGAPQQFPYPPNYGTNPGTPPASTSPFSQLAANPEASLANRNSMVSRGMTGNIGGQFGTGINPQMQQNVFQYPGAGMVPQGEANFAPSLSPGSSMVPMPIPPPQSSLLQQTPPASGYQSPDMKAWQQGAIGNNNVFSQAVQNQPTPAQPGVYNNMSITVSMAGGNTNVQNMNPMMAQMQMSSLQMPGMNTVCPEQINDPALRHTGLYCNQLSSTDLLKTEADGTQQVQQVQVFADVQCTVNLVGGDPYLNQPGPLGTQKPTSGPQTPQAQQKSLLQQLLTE
Peroxisome proliferator-activated receptor gamma/Nuclear receptor coactivator 3, sequence (P37231 whole entry): as the sequence (P37231 whole entry) above
Peroxisome proliferator-activated receptor gamma/Nuclear receptor coactivator 3, sequence (Q9Y6Q9 whole entry, further chain): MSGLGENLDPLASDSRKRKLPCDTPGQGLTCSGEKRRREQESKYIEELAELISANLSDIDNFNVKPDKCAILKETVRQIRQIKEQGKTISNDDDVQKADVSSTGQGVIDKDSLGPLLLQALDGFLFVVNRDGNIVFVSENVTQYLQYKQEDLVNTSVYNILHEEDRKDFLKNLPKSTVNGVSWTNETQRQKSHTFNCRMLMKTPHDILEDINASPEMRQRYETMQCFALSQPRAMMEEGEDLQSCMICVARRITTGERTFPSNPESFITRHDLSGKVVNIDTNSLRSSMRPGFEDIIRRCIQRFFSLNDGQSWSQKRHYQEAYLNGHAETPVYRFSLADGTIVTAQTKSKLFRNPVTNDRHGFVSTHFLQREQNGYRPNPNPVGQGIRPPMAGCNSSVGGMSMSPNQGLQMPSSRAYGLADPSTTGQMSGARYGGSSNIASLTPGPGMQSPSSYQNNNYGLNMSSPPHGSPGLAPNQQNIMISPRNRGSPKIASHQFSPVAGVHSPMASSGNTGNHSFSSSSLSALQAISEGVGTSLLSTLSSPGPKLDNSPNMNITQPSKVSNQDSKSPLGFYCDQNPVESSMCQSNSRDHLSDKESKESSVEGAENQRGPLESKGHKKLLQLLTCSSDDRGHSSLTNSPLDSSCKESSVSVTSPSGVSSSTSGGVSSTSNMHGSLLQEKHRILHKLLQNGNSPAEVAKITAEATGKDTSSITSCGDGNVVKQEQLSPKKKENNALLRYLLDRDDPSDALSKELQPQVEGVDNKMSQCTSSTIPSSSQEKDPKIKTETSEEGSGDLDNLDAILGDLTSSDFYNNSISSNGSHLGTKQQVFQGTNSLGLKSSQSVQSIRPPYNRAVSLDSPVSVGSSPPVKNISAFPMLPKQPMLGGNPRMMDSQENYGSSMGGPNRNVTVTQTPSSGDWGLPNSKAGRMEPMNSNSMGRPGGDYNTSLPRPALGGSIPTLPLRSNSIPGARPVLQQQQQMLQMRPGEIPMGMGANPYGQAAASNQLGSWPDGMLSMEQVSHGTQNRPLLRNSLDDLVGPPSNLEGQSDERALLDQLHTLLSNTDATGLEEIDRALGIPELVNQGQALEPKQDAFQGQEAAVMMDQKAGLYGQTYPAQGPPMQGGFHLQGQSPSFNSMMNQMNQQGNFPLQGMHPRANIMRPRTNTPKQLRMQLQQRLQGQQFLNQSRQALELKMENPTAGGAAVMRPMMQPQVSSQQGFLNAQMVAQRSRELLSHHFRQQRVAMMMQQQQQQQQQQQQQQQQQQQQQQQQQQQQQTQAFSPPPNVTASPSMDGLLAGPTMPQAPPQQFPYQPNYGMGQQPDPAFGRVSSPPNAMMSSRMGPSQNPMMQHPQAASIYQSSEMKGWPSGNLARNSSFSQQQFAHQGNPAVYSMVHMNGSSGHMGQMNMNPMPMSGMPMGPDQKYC

CCC1CCC2(CC1)NC(=O)N(CC(=O)Nc1ccc(OC)c(Cl)c1)C2=O (configuration not stated)
IC50 [1]: > 100 µM (active)

CC(OC(=O)c1ccc([N+](=O)[O-])o1)C(=O)NC1CCCCC1C (configuration not stated)
IC50 [1]: > 100 µM (active)

Cc1ccc2nsnc2c1S(=O)(=O)N(Cc1ccco1)Cc1cc2cccc(C)c2nc1O
IC50 [1]: > 100 µM (active)
IC50 (H9c2): > 79 µM (inactive)

O=C(CSc1ncnc2c1nnn2-c1ccc(F)cc1)NCc1ccco1
EC50 [2]: > 79.4 µM (not active)
EC50 [3]: > 79.4 µM (not active)
EC50 [4]: > 79.4 µM (not active)

Cc1cccc(N2CCN(C(=O)c3cc4n(n3)C(C(F)(F)F)CC(c3ccco3)N4)CC2)c1C (configuration not stated)
EC50 [5]: > 20 µM (not active)
EC50 [6]: 3.02 µM (active)
EC50 [7]: > 20 µM (not active)
AC50 [8]: 1.84 µM (active)
EC50 (Streptococcus): 29.1 µM (active)
EC50 (Streptokinase A): 16.7 µM (active)

Nc1c(C(=O)NCCc2ccccc2)c2nc3ccccc3nc2n1CCN1CCOCC1
EC50 [5]: 10.4 µM (active)
EC50 [7]: 9.43 µM (active)

c1ccc(CN2CCN(c3nc(-c4ccccc4)nc(-n4ccnc4)n3)CC2)cc1
EC50 [5]: 11.9 µM (active)
EC50 [7]: 9.94 µM (active)
EC50 [9]: > 60 µM (not active)
EC50 [10]: 2.31 µM (active)

COc1cccc(C2=NC(C)(C)NC(c3ccccc3O)C2)c1 (configuration not stated)
EC50 [5]: 12.5 µM (active)
EC50 [7]: 11.7 µM (active)

O=C(CCC1CCCN(C(=O)C2=CCCCC2)C1)N1CCN(c2ccccn2)CC1 (configuration not stated)
EC50 [2]: > 79.4 µM (not active)
EC50 [3]: > 79.4 µM (not active)
EC50 [4]: > 79.4 µM (not active)

CC1(C)OC2OC(C(=O)N/N=C/c3cc(Br)ccc3O)C3OC(C)(C)OC3C2O1 (configuration not stated)
IC50 (Aminopeptidase N): 51.7 µM (active)

O=C(COc1ccc(-n2cnnn2)cc1)Nc1ccc(F)c(F)c1
AC50 [11]: 1.42 µM (active)

O=C(Nc1nc(-c2ccc(S(=O)(=O)N3CCCCCC3)cc2)cs1)c1cccs1
EC50 [2]: 14.6 µM (not active)
EC50 [9]: 6.61 µM (active)
EC50 [10]: 2.33 µM (active)
EC50 [3]: 16.5 µM (not active)
EC50 [4]: 17.4 µM (not active)

Clc1ccc(-c2nnnn2-c2ccc(Cl)c(Cl)c2)cc1Cl
IC50 [12]: < 0.4 µM (not active)
EC50 [6]: 9.57 µM (active)
IC50 [1]: > 100 µM (active)
AC50 [8]: 3.97 µM (active)
EC50 (Streptococcus): > 150 µM (not active)
EC50 (Streptokinase A): 8.28 µM (active)

O=C1Nc2cc(Cl)ccc2C1(N1CCNCC1)C(F)(F)F (configuration not stated)
EC50 [5]: > 20 µM (not active)
EC50 [7]: > 20 µM (not active)

Cc1ccc(NC(=O)CN(C)C(=S)NC2CC2)cc1
EC50 [2]: > 79.4 µM (not active)
EC50 [3]: > 79.4 µM (not active)
EC50 [4]: > 79.4 µM (not active)

CCCCCCn1c(N2CCN(c3cccc(Cl)c3)CC2)nc2c1c(=O)[nH]c(=O)n2C
EC50 [5]: > 20 µM (not active)
EC50 [7]: > 20 µM (not active)
IC50 (Protein skinhead-1): > 100 µM (inactive)

Cc1ccc2c(c1)c1nnc(SCC(=O)Nc3cccc(Cl)c3C)nc1n2CC(=O)O
IC50 (Aminopeptidase N): 8.42 µM (active)

CN(C)CCCNC(=O)C[C@H]1C[C@H](C(=O)N2CCOCC2)[C@@]2(CCC3CCCC3)c3[nH]c4cc(-c5ccco5)ccc4c3CCN2C1=O
AC50 [13]: 11.2 µM (active)
IC50 (Fatty acid synthase [14]): 5.74 µM (active)
IC50 (Fatty acid synthase [15]): 5.89 µM (active)

CCN1CCN(Cc2ccc(NC(=O)c3ccc(C)c(NC(=O)c4csc(-c5ccncc5)n4)c3)cc2C(F)(F)F)CC1
AC50 [13]: 33.6 µM (active)

CCOC(=O)c1c(C)[nH]c(C)c1C(=O)COC(=O)c1cccc(S(=O)(=O)NC)c1
IC50 [1]: > 100 µM (active)

C=CCN1C(=O)/C(=c2\sc3nc(=O)c(Cc4ccccc4Cl)nn3c2=O)c2ccccc21
IC50 (Aminopeptidase N): 57.4 µM (active)
